In US20240425478A1, “CYCLOPENTYLPYRAZOLE CDK2 INHIBITORS” (Genentech, Inc., priority 2021, published 2024):
Read-outs that look alike come from different tables or passages of the source.

Tests used:
[1] = target: T1, Cyclin Dependent Kinase 1/Cyclin A2 (CDK1-cycA2) (Homo sapiens, UniProt P06493); test: CDK1-cycA2 TR-FRET (Lance) enzyme assay; format: biochemical; conditions: Table O, enzymatic assay
T1 construct: purchased ProQinase 0134-0054-1
Experimental: (§1) Cyclin Dependent Kinase 1/Cyclin A2 (CDK1-cycA2), Cyclin Dependent Kinase 2/Cyclin E1 (CDK2-cycE1), Cyclin Dependent Kinase 4/Cyclin D3 (CDK4-cycD3) and Cyclin Dependent Kinase 6/Cyclin D3 (CDK6-cycD3) enzyme assays were carried out as described below.
(1) CDK1-cycA2 TR-FRET (Lance®)
(§2) An Echo acoustic dispenser is used to create dose responses of compound dissolved in DMSO into a 384-well microplate. A 5 μL volume of enzyme mix is added to the well, and pre-incubated with compound for 30 minutes. […] Buffer conditions are 50 mM HEPES, pH 7.5, 10 mM MgCl2, 2 mM TCEP, 0.05% BGG and 0.01% Brij 35. The reaction is quenched with 5 μL of EDTA in detection buffer (15 mM [EDTA final]). Finally, a 5 μL TR-FRET detection mix is added to the quenched reaction, which includes Europium labeled anti-phospho-4E-BP1. […] Signal is a ratio of the Acceptor and Donor fluorescence. Inhibition constants are calculated via the Morrison equation.

[2] = target: T2, Cyclin Dependent Kinase 2/Cyclin E1 (CDK2-cycE1) (Homo sapiens, UniProt P24941); test: CDK2-cycE1 TR-FRET (LANCE) enzyme assay; format: biochemical; conditions: for Ki: enzymatic assay, read-out: CDK2 Ki; for FS CDK1/CDK2 / FS CDK4/CDK2: fold selectivity; for increased fold-selectivity CDK4/CDK2 over Comparator C: (+) sign after FS CDK4/CDK2
T2 construct: purchased ProQinase 0050-0055-1
Experimental: as §1
(ii) CDK2-cycE1 TR-FRET (LANCE®)
as §2, with “anti-phospho-MBP.” for “anti-phospho-4E-BP1.”, “equation. Enzyme source of CDK2-cycE1 is ProQinase, catalog #: 0050-0055-1.” for “equation.”

[3] = target: T3, Cyclin Dependent Kinase 4/Cyclin D3 (CDK4-cycD3) (Homo sapiens, UniProt P11802); test: CDK4-cycD3 TR-FRET (LANCE) enzyme assay; format: biochemical; conditions: Table O, enzymatic assay
T3 construct: purchased Carna Biosciences 04-105
Experimental: as §1
(iii) CDK4-cycD3 TR-FRET (LANCE®)
as §2

[4] = tested on: OVISE (JCRB1043, CCNE1-amplified); test: OVISE EdU incorporation cell proliferation assay (CDK2-dependent); format: cell-based; conditions: for IC50: cellular assay, read-out: CDK2 OVISE IC50; for FS SKOV-3/OVISE: fold selectivity; for improvement in CDK2 OVISE cell potency over Comparator C: in brackets after OVISE IC50, Comparator C 5.5 μM; for increased fold-selectivity SKOV-3/OVISE over Comparator C: (+) sign after FS SKOV-3/OVISE
Experimental: (§3) (i) OVISE and SKOV-3 EdU Incorporation Cell Proliferation Assays
(§4) Ovarian cancer cell proliferation is measured by incorporation of EdU (5-ethynyl-2′-deoxyuridine) into newly synthesized DNA. CDK2-dependent proliferation is determined using OVISE (JCRB1043, CCNE1-amplified) while CDK4/6-dependent effect is determined with SKOV-3 (ATCC HTB-77) which is not CCNE1-amplified.
(§5) Cells are plated in 384-well plates in RPMI medium supplemented with 10% FBS. Compounds are added at desired concentrations with a final DMSO content of 0.5%, and cells incubated at 37° C./5% CO2 for 16 hours. EdU (Life Technologies) is added to a final concentration of 0.5 μM and incubation continued for 8 hours, followed by fixation with 4% paraformaldehyde. […] Images are acquired using Yokogawa CQ1 imaging cytometer with a 10×objective. […] The IC50 for inhibition of cell division is determined by fitting the fraction of EdU-positive cells as a function of compound dose using a 4-parameter logistic model.

[5] = tested on: SKOV-3 (ATCC HTB-77); test: SKOV-3 EdU incorporation cell proliferation assay (CDK4/6-dependent); format: cell-based; conditions: Homo sapiens, cellular assay, read-out: CDK4/6 SKOV-3 IC50
Experimental: as §3, §4, §5

[6] = Table O, enzymatic CDK1 Ki over CDK2 Ki
[7] = Table O, enzymatic CDK4 Ki over CDK2 Ki
[8] = Table O, cellular SKOV-3 IC50 over OVISE IC50

T3 sequence (P11802 whole entry): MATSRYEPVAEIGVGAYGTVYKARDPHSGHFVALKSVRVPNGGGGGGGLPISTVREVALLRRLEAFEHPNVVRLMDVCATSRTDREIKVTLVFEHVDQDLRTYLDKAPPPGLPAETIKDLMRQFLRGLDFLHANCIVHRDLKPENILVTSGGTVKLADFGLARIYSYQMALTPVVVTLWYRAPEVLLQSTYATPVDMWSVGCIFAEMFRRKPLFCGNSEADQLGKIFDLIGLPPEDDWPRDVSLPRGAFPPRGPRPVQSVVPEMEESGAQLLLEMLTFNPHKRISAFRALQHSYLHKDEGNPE
T3 sequence (P30281 whole entry partner): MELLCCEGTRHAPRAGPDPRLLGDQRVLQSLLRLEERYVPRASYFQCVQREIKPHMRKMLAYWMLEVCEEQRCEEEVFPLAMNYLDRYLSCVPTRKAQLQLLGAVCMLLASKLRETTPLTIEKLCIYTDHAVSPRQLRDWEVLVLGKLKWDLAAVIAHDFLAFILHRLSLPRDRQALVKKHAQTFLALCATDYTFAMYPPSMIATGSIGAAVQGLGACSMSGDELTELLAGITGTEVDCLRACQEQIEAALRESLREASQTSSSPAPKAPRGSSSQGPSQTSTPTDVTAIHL
T1 sequence (P06493 whole entry): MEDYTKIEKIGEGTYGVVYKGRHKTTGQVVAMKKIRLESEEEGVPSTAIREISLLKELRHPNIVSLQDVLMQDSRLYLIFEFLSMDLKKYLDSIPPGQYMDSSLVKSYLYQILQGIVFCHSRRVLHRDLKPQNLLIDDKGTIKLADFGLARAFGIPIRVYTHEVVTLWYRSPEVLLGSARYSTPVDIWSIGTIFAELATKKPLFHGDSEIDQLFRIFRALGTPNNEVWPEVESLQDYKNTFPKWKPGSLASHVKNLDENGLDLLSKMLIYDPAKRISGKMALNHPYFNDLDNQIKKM
T1 sequence (P20248 whole entry partner): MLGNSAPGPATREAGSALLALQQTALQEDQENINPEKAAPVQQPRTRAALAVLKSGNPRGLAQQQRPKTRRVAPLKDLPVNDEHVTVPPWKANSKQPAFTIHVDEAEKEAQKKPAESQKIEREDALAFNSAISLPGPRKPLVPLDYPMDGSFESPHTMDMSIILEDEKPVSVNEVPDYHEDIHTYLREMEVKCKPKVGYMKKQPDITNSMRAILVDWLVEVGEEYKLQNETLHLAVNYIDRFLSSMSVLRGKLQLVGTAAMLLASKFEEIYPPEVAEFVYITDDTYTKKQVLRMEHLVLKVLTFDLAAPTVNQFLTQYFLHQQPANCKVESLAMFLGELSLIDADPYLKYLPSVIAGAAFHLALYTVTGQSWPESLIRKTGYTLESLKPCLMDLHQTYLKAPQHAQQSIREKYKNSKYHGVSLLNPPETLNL

improvement in potency against CDK2 (Ki) over Comparator C ([2]; Table Q, in brackets after CDK2 Ki, Comparator C 0.032 μM) [fold]	Compound	Ki [1] [µM]	Ki ([2]; Table O) [µM]	FS CDK1/CDK2 [2, 6]	FS CDK4/CDK2 [2, 7]	increased fold-selectivity CDK4/CDK2 over Comparator C ([2]; Table Q)	Ki ([2]; Table Q) [µM]	FS CDK1/CDK2 ([2]; Table Q, enzymatic)	FS CDK4/CDK2 ([2]; Table Q, enzymatic)	Ki [3] [µM]	IC50 ([4]; Table O) [µM]	FS SKOV-3/OVISE [4, 8]	IC50 ([4]; Table Q) [µM]	FS SKOV-3/OVISE ([4]; Table Q, cellular)	improvement in CDK2 OVISE cell potency over Comparator C ([4]; Table Q) [fold]	IC50 ([5]; SK-OV-3, Table O) [µM]	IC50 ([5]; SK-OV-3, Table Q) [µM]	improvement in potency against CDK2 (Ki) over Comparator C [2] [fold]	increased fold-selectivity SKOV-3/OVISE over Comparator C ([4]; Table Q)
0.4	Cc1cc(=O)n(C)cc1Nc1cc([C@H]2CC[C@@H](OC(=O)NC(C)C)C2)[nH]n1 [Example 2S, (1R,3S)-3-(3-((1,4-dimethyl-6-oxo-1,6-dihydropyridin-3-yl)amino)-1H-pyrazol-5-yl)cyclopentyl isopropylcarbamate]	7.4	0.89	8.3	13	(+) (The (+) sign in Table Q signifies desirable increased fold-selectivity of the exemplary compounds over Comparator C)	0.89	8.3	13	12	> 20	1.0	> 20	1.0	0.28	> 20	> 20	–	–
–	Cc1ncncc1Nc1cc([C@H]2CC[C@@H](OC(=O)NC(C)C)C2)[nH]n1 [Example 2U, (1R,3S)-3-(3-((4-methylpyrimidin-5-yl)amino)-1H-pyrazol-5-yl)cyclopentyl isopropylcarbamate]	0.56	0.015	37	120	(+) (The (+) sign in Table Q signifies desirable increased fold-selectivity of the exemplary compounds over Comparator C)	0.015	37	120	1.8	0.4	>50	–	> 50	13.8	> 20	> 20	2	(+) (The (+) sign in Table Q signifies desirable increased fold-selectivity of the exemplary compounds over Comparator C)
–	Cc1ncc(Nc2cc([C@H]3CC[C@@H](OC(=O)NC(C)C)C3)[nH]n2)c(C)n1 [Example 2W, (1R,3S)-3-(3-((2,4-dimethylpyrimidin-5-yl)amino)-1H-pyrazol-5-y1)cyclopentyl isopropylcarbamate]	1.1	0.042	26	74	(+) (The (+) sign in Table Q signifies desirable increased fold-selectivity of the exemplary compounds over Comparator C)	0.042	26	74	3.1	2.7	>7.4	–	> 7.4	2	> 20	> 20	0.8	(+) (The (+) sign in Table Q signifies desirable increased fold-selectivity of the exemplary compounds over Comparator C)
–	COc1ncc(Nc2cc([C@H]3CC[C@@H](OC(=O)NC(C)C)C3)[nH]n2)c(C)n1 [Example 2X, (1R,3S)-3-(3-((2-methoxy-4-methylpyrimidin-5-yl)amino)-1H-pyrazol-5-yl)cyclopenty1 isopropylcarbamate]	1.2	0.059	20	64	(+) (The (+) sign in Table Q signifies desirable increased fold-selectivity of the exemplary compounds over Comparator C)	0.059	20	64	3.8	2.8	>7.1	–	> 7.1	2	> 20	> 20	0.5	(+) (The (+) sign in Table Q signifies desirable increased fold-selectivity of the exemplary compounds over Comparator C)
–	COc1nc(C)ncc1Nc1cc([C@H]2CC[C@@H](OC(=O)NC(C)C)C2)[nH]n1 [Example 2Y, (1R,3S)-3-(3-((4-methoxy-2-methylpyrimidin-5-yl)amino)-1H-pyrazol-5-yl)cyclopentyl isopropylcarbamate]	7.5	0.21	36	230	(+) (The (+) sign in Table Q signifies desirable increased fold-selectivity of the exemplary compounds over Comparator C)	0.21	36	230	49	16	>1.3	–	>1.3	0.18	> 20	> 20	0.15	–
–	O=C(NC1CCOCC1)O[C@@H]1CC[C@H](c2cc(Nc3cccnn3)n[nH]2)C1 [Example 3D, (1R,3S)-3-(3-(pyridazin-3-ylamino)-1H-pyrazol-5-yl)cyclopentyl (tetrahydro-2H-pyran-4-yl)carbamate]	1.4	0.061	23	38	–	–	–	–	2.3	7.9	>2.5	–	–	–	> 20	–	–	–
–	CC1(NC(=O)O[C@@H]2CC[C@H](c3cc(Nc4cccnn4)n[nH]3)C2)COC1 [Example 3G, (1R,3S)-3-(3-(pyridazin-3-ylamino)-1H-pyrazol-5-yl)cyclopentyl (3-methyloxetan-3-yl)carbamate]	0.24	0.0083	29	88	–	–	–	–	0.73	0.75	>27	–	–	–	> 20	–	–	–
